# From patent US12390437B2, “Itaconic acid derivatives and uses thereof intreating an inflammatory disease or a disease associated with an undesirable immune response” (Sitryx Therapeutics Limited, priority 2019, dated 2025)
# Where two headings read alike, the source gives them in different places.
# Key:
# [1] = system: IL-6 cytokine output from THP-1s; test: THP-1 AlphaLISA IL-6 cytokine assay; assay type: cell-based, human; details: for IC50: Homo sapiens
# Summary of the method: (§1)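 Percent inhibition, normalised to plus- and minus-LPS controls, was plotted against concentration to derive IC50. Differentiated THP-1 cells received compound 30 min ahead of LPS (24 h) and a 1 h nigericin pulse; AlphaLISA quantified supernatant cytokine.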
# [2] = system: NQO1; test: NQO1 enzyme activation assay as a readout of NRF2 activation in THP-1 cells; assay type: cell-based; details: Homo sapiens; for Emax: THP-1, percentage activation at top concentration, normalised to DMF (100%) and vehicle controls; for EC50: differentiated THP-1 cells, LPS, 48 hr
# Description: NQO1 Enzyme Activation Assay as a Readout of NRF2 Activation in THP-1 Cellular Background
# NAD(P)H dehydrogenase [quinone] […] Induction of this gene is concomitant with the inhibition of proinflammatory cytokine transcription and suppression of the inflammatory response (Kobayashi E. H. et al., 2016). The NQO1 enzyme activation activities of compounds of formula (IW-1) were determined using a cellular based NQO1 activation assay (Abcam). The NQO1 activation assay was run in differentiated THP-1 cells (a human monocyte-like cell line) as described below. All reagents described are from Sigma-Aldrich unless specified otherwise. Compounds were prepared as 10 mM DMSO stocks.
# THP-1 cells were expanded as a suspension up to 80% confluence in appropriate growth medium. Cells were harvested, suspended, treated with phorbol 12-myristate 13-acetate (PMA) and plated according to the cell density required for each plate format over a 72 hr period (37° C./5% CO2).
# Following 72 hrs of THP-1 cell incubation, cellular medium was removed and replaced with fresh media. Working concentrations of compounds were prepared and pre-incubated for 30 minutes (37° C./5% CO2). Compound treatment was then applied to the PMA treated THP-1 cell plate followed by LPS treatment. A ‘low’ (DMSO vehicle only) control and ‘high’ (designated concentration of dimethyl fumarate) was applied to each plate at the point of compound treatment. Cells were subsequently incubated for a 48 hr period (37° C./5% C02) after which all NQO1 assay reagents were prepared according to the manufacturer's instructions. NQO1 extraction buffer was applied to PBS washed THP-1 cells and incubated on ice for 15 minutes to prepare THP-1 lysates for the NQO1 activity assay. THP-1 lysates were diluted 1:5 with PBS and treated with a 1:1 volume of kit prepared NQO1 Reaction Buffer. Absorbance was subsequently measured kinetically on an appropriate reader over a 6 minute period.
# For activation determination, the fold change in response per well was determined by first calculating the average NQO1 activation data for the vehicle control and then dividing the individual well response by the averaged NQO1 response for the vehicle control as shown below: Fold change=(Sample value)/MeanMin Where ‘Min’=vehicle control only
# The relative 50% activation concentration (EC50) was determined from the resulting fold change response curve. The maximum efficacy (Emax) was reported as the percentage activation calculated at the top concentration of compound used in the titration applied. If a full curve was unattainable preventing a correct curve fit, the Emax value was extrapolated using existing curve data. All percentage activation data were normalised to the DMF and vehicle controls, meaning the Emax represents the percentage […] achieved by a compound at a particular concentration relative to that achieved by DMF (set as the ‘High’ control and therefore representative of 100% activation).
# [3] = system: IL-1β cytokine output from THP-1s; test: THP-1 AlphaLISA IL-1β cytokine assay; assay type: cell-based, human; details: for IC50: Homo sapiens, read-out: IL-1β (IC50)
# Summary of the method: as §1
# [4] = system: NRF2; test: NRF2 +/-GSH activation assay (DiscoverX PathHunter NRF2 translocation kit, U2OS cells); assay type: cell-based; details: Homo sapiens, U2OS, Table 10, assay of Biological Example 5 (NRF2)
# Summary of the method: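 Percent activation, normalised to dimethyl fumarate (high) and vehicle (low) controls, was fitted for EC50 after 6 hours treatment of U2OS PathHunter cells. In the +GSH arm compounds were first pre-incubated 30 minutes in 6 mM working GSH; NRF2 translocation read by chemiluminescent complementation.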
# [5] = Mouse pharmacokinetic study, oral administration; assay type: in vivo; details: mouse plasma, Example 112 dosed orally at 100 mg/kg (Intermediate 8 = metabolite)
# Description: Pharmacokinetic studies were carried out in 6-8-week-old male C57BL/6 mice having free access to food and water. Intravenous dosing was conducted at 10 mg/kg (5 mL/kg; vehicle: 10% DMSO-90% (25% HP-13-CD in water)) via tail vein injection, with sampling at 3 min, 8 min, 15 min, 30 min, 1, 2, 4, 6 and 8 hours, i.e., 9 time points in total (N=3/time point), using semi-serial bleeding for plasma. Oral compound administration, via gavage, was carried out at 100 mg/kg (10 mL/kg; vehicle: 5% DMSO-95% (0.5% HPMC+0.1% Tween 80 in water)), with sampling at 5 min, 15 min, 30 min, 1, 2, 4, 6, 8 and 24 hours, i.e., 9 time points in total (N=3/time point), using semi-serial bleeding for plasma.
# For both intravenous and oral routes, the mice were restrained manually at the designated time points, with ca. 110 μL of blood being taken into K2EDTA tubes via the facial vein. Blood samples were put on ice and centrifuged to obtain plasma samples from which the concentration at each time point was measured by LC-MS/MS.
# [6] = PMA-differentiated THP-1 cells, LPS 24 hr then Nigericin 1 hour
# [7] = THP-1, PMA-differentiated THP-1 cells, LPS 24 hr then Nigericin 1 hour
# [8] = Table 10, assay of Biological Example 1 (THP-1)
Structure (SMILES),"IC50 [1, 6]",Emax [2],EC50 [2],"IC50 [3, 7]",further results
"C=C(CC(=O)OCCCCCCCC)C(=O)OCCC(=O)N(C)C [Example 6, 1-(3-(dimethylamino)-3-oxopropyl) 4-octyl 2-methylenesuccinate]",12.1 µM,154%,30.6 µM,12.8 µM,–
"C=C(CC(=O)OCCCC)C(=O)OCCS(C)(=O)=O [Example 7, 4-butyl 1-(2-(methylsulfonyl)ethyl) 2-methylenesuccinate]",12 µM,78%,7.3 µM,16.7 µM,–
"C=C(CC(=O)OCCCC)C(=O)OCCC#N [Example 8, 1-(2-cyanoethyl) 4-butyl 2-methylenesuccinate]",–,152%,35.4 µM,–,–
"C=C(CC(=O)OC)C(=O)OCCC#N [Example 10, 1-(2-cyanoethyl) 4-methyl 2-methylenesuccinate]",7.6 µM,107%,15.2 µM,27.9 µM,–
"C=C(CC(=O)OCCCCCC)C(=O)OCCC#N [Example 11, 1-(2-cyanoethyl) 4-hexyl 2-methylenesuccinate]",–,124%,10.4 µM,3.7 µM,–
"C=C(CC(=O)OC)C(=O)OCCS(C)(=O)=O [Example 12, 4-methyl 1-(2-(methylsulfonyl)ethyl) 2-methylenesuccinate]",11.3 µM,88%,22.7 µM,28.2 µM,–
"C=C(CC(=O)OCCCCCCCC)C(=O)OCCOC(F)(F)F [Example 13, 4-octyl 1-(2-(trifluoromethoxy)ethyl) 2-methylenesuccinate]",–,45%,2.8 µM,–,–
"C=C(CC(=O)OCCCCCCCC)C(=O)OCCS(=O)(=O)N(C)C [Example 16, 1-(2-(N,N-dimethylsulfamoyl)ethyl) 4-octyl 2-methylenesuccinate]",1.1 µM,108%,19.8 µM,1.7 µM,–
"C=C(CC(=O)OCCCCCCCC)C(=O)OCCN(C)C [Example 17, 1-(2-(dimethylamino)ethyl) 4-octyl 2-methylenesuccinate]",1.4 µM,68%,2.6 µM,1.5 µM,–
"C=C(CC(=O)OCCCCCCCC)C(=O)OCCCS(C)(=O)=O [Example 18, 1-(3-(methylsulfonyl)propyl) 4-octyl 2-methylenesuccinate]",–,67%,5.4 µM,–,–
"C=C(CC(=O)OCCCCCCCC)C(=O)OC(C)CS(C)(=O)=O (stereo not shown) [Example 19, 1-(1-(methylsulfonyl)propan-2-yl) 4-octyl 2-methylenesuccinate]",1.9 µM,44%,51 µM,3.6 µM,–
"C=C(CC(=O)OCCCCCCCC)C(=O)OCC(=O)N(C)C [Example 21, 1-(2-(dimethylamino)-2-oxoethyl) 4-octyl 2-methylenesuccinate]",2.4 µM,150%,12.1 µM,2.9 µM,–
"C=C(CC(=O)OCCCC)C(=O)OC1COC1 [Example 37, 4-butyl 1-(oxetan-3-yl) 2-methylenesuccinate]",–,105%,21 µM,–,–
"C=C(CC(=O)OCCCCCC)C(=O)OC1COC1 [Example 38, 4-hexyl 1-(oxetan-3-yl) 2-methylenesuccinate]",6.8 µM,111%,8.5 µM,7.4 µM,–
"C=C(CC(=O)OCCCC)C(=O)OCCS(=O)(=O)c1ccc(C)cc1 [Example 39, 4-butyl 1-(2-tosylethyl) 2-methylenesuccinate]",7.3 µM,59%,1.3 µM,5.1 µM,–
"C=C(CC(=O)OC1CCCCCCC1)C(=O)OC [Example 41, 4-cyclooctyl 1-methyl 2-methylenesuccinate]",–,129%,38.1 µM,–,–
"C=C(CC(=O)OCCCCCCCC)C(=O)OC [Example 42, 1-methyl 4-octyl 2-methylenesuccinate]",–,66%,24.3 µM,–,–
"C=C(CC(=O)OC1CCC1)C(=O)OC1CCC1 [Example 43, dicyclobutyl 2-methylenesuccinate]",–,150%,170 µM,–,–
"C=C(CC(=O)OC1COC1)C(=O)OC1COC1 [Example 44, di(oxetan-3-yl) 2-methylenesuccinate]",–,217%,64.6 µM,–,–
"C=C(CC(=O)OCCCCCCCC)C(=O)OC1CCC1 [Example 45, 1-cyclobutyl 4-octyl 2-methylenesuccinate]",–,72%,1.6 µM,–,–
"C=C(CC(=O)O[C@H](C)CCCCCC)C(=O)O [Intermediate 8, (R)-2-methylene-4-(octan-2-yloxy)-4-oxobutanoic acid]",–,–,–,–,"IC50 [1, 8]: 23.7 µM; IL-6 (IC50) [1, 8]: improved cytokine-lowering potencies compared to dimethyl itaconate; IC50 ([3]; THP-1, Table 10, assay of Biological Example 1 (THP-1)): 56.7 µM; IL-1β (IC50) [3, 8]: improved cytokine-lowering potencies compared to dimethyl itaconate; EC50 ([4]; read-out: EC50): 20.4 µM; Emax ([4]; read-out: Emax): 165%; concentration at 0.083 h ([5]; male, C57BL/6, po, time 0.083 h, read-out: Example 112 and Intermediate 8 concentrations following oral administration): 18500 ng/mL; concentration at 0.25 h ([5]; male, C57BL/6, po, time 0.25 h, read-out: Example 112 and Intermediate 8 concentrations following oral administration): 19800 ng/mL; concentration at 0.5 h ([5]; male, C57BL/6, po, time 0.5 h, read-out: Example 112 and Intermediate 8 concentrations following oral administration): 12800 ng/mL; concentration at 1 h ([5]; male, C57BL/6, po, time 1 h, read-out: Example 112 and Intermediate 8 concentrations following oral administration): 4710 ng/mL; concentration at 2 h ([5]; male, C57BL/6, po, time 2 h, read-out: Example 112 and Intermediate 8 concentrations following oral administration): 2160 ng/mL; concentration at 4 h ([5]; male, C57BL/6, po, time 4 h, read-out: Example 112 and Intermediate 8 concentrations following oral administration): 719 ng/mL; concentration at 6 h ([5]; male, C57BL/6, po, time 6 h, read-out: Example 112 and Intermediate 8 concentrations following oral administration): 614 ng/mL; concentration at 8 h ([5]; male, C57BL/6, po, time 8 h, read-out: Example 112 and Intermediate 8 concentrations following oral administration): 132 ng/mL; Example 112 and Intermediate 8 concentrations following oral administration ([5]; time 24 h): BQL"
